According to patent publication US12077503B2, “Substituted cyclic amides and their use as herbicides” (FMC CORPORATION, priority 2015, dated 2024):

What was measured:
Type in all cases: in vivo
Kochia (Kochia scoparia) [1] = assay: Test A preemergence
Outline: (§1)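 Each rating is a visual injury score from 0 to 100 given about 10 d after treatment, judged against untreated controls kept alongside in the greenhouse. In loam soil–sand blend, seeds got a preemergence directed soil spray, while postemergence plants were 2 to 10 cm tall at spraying.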

[2] = test system: barnyardgrass (Echinochloa crus-galli); assay: Test A preemergence
Outline: as §1

[3] = test system: giant foxtail (Setaria faberii); assay: Test A preemergence
Outline: as §1

[4] = test system: pigweed (Amaranthus retroflexus); assay: Test A preemergence
[5] = test system: ragweed (common ragweed, Ambrosia elatior); assay: Test A preemergence
Outline: as §1

[6] = test system: ryegrass, Italian (Italian ryegrass, Lolium multiflorum); assay: Test A preemergence
Outline: as §1

[7] = test system: Galium (catchweed bedstraw, Galium aparine); assay: Test A postemergence; conditions: postemergence, 0 to 100 scale (0 no effect, 100 complete control)
Outline: as §1

Kochia (Kochia scoparia) [8] = assay: Test A postemergence; conditions: postemergence, 0 to 100 scale (0 no effect, 100 complete control)
Outline: as §1

[9] = test system: barnyardgrass (Echinochloa crus-galli); assay: Test A postemergence; conditions: postemergence, 0 to 100 scale (0 no effect, 100 complete control)
Outline: as §1

[10] = test system: blackgrass (Alopecurus myosuroides); assay: Test A postemergence; conditions: postemergence, 0 to 100 scale (0 no effect, 100 complete control)
Outline: as §1

corn (Zea mays) = assay: Test A postemergence; conditions: postemergence, 0 to 100 scale (0 no effect, 100 complete control)
Outline: as §1

[11] = test system: giant foxtail (Setaria faberii); assay: Test A postemergence; conditions: postemergence, 0 to 100 scale (0 no effect, 100 complete control)
Outline: as §1

[12] = test system: pigweed (Amaranthus retroflexus); assay: Test A postemergence; conditions: postemergence, 0 to 100 scale (0 no effect, 100 complete control)
Outline: as §1

[13] = test system: ragweed (common ragweed, Ambrosia elatior); assay: Test A postemergence; conditions: postemergence, 0 to 100 scale (0 no effect, 100 complete control)
Outline: as §1

[14] = test system: ryegrass, Italian (Italian ryegrass, Lolium multiflorum); assay: Test A postemergence; conditions: postemergence, 0 to 100 scale (0 no effect, 100 complete control)
Outline: as §1

[15] = test system: wheat (Triticum aestivum); assay: Test A postemergence; conditions: postemergence, 0 to 100 scale (0 no effect, 100 complete control)
Outline: as §1

[16] = test system: barnyardgrass (Echinochloa crus-galli); assay: Test B flooded paddy test; conditions: Flood, 0 to 100 scale where 0 is no effect and 100 is complete control, 13 to 15 d
Outline: (§2)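 Response scored visually against untreated controls, 0 = no effect and 100 = complete control, 13–15 d after treatment in the greenhouse. Compounds added to paddy water held 3 cm above soil surface. Treatment given at 2-leaf stage.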

[17] = test system: ducksalad (Heteranthera limosa); assay: Test B flooded paddy test; conditions: Flood, 0 to 100 scale where 0 is no effect and 100 is complete control, 13 to 15 d
Outline: as §2

rice (Oryra sativa) = assay: Test B flooded paddy test; conditions: Flood, 0 to 100 scale where 0 is no effect and 100 is complete control, 13 to 15 d
Outline: as §2

[18] = test system: sedge, umbrella (small-flower umbrella sedge, Cyperus difformis); assay: Test B flooded paddy test; conditions: Flood, 0 to 100 scale where 0 is no effect and 100 is complete control, 13 to 15 d
Outline: as §2

[19] = 125 g ai/ha, Preemergence, visual injury after approximately 10 d, 0 to 100 scale where 0 is no effect and 100 is complete control
[20] = 500 g ai/ha, preemergence, 0 to 100 scale, 0 = no effect, 100 = complete control
[21] = 125 g ai/ha, visual rating after approx. 10 d
[22] = 500 g ai/ha, visual injury, approx. 10 d
[23] = 125 g ai/ha, preemergence, visual rating after approx. 10 d, 0 to 100 scale where 0 is no effect and 100 is complete control
[24] = 125 g ai/ha, visual injury after approximately 10 d

| Structure (SMILES) | Plant response rating, Kochia (Kochia (Kochia scoparia) [1]; [19]) | Plant response rating, Kochia (Kochia (Kochia scoparia) [1]; [20]) | Plant response rating, Barnyardgrass [2, 19] | Plant response rating, Barnyardgrass [2, 20] | Plant response rating, Foxtail, Giant [3, 19] | Plant response rating, Foxtail, Giant [3, 20] | Plant response rating, Pigweed [4, 20] | Plant response rating, Ragweed [5, 20] | Plant response rating, Ryegrass, Italian [6, 20] | Plant response rating, Galium [7, 22] | Plant response rating, Kochia (Kochia (Kochia scoparia) [8]; [22]) | Plant response rating, Barnyardgrass [9, 21] | Plant response rating, Barnyardgrass [9, 22] | Plant response rating, Blackgrass [10, 22] | Plant response rating, Corn (corn (Zea mays); [22]) | Plant response rating, Foxtail, Giant [11, 22] | Plant response rating, Pigweed [12, 22] | Plant response rating, Ragweed [13, 22] | Plant response rating, Ryegrass, Italian [14, 22] | Plant response rating, Wheat [15, 22] | other results |
| --- | --- | --- | --- | --- | --- | --- | --- | --- | --- | --- | --- | --- | --- | --- | --- | --- | --- | --- | --- | --- | --- |
| Cc1ccc(C2CNC(=O)C2C(=O)Nc2ccccc2F)cc1C(F)(F)F (racemic) [Compound 678] | 0 | 30 | 90 | 90 | 80 | 90 | 0 | 0 | 20 | 30 | 0 | 70 | 80 | 60 | 30 | 60 | 0 | 0 | 20 | 20 | Plant response rating, Pigweed [4, 19]: 0; Plant response rating, Ragweed [5, 19]: 0; Plant response rating, Ryegrass, Italian [6, 19]: 0; Plant response rating, Galium [7, 21]: 0; Plant response rating, Kochia (Kochia (Kochia scoparia) [8]; [21]): 0; Plant response rating, Blackgrass [10, 21]: 30; Plant response rating, Corn (corn (Zea mays); [21]): 10; Plant response rating, Foxtail, Giant [11, 21]: 20; Plant response rating, Pigweed [12, 21]: 0; Plant response rating, Ragweed [13, 21]: 0; Plant response rating, Ryegrass, Italian [14, 21]: 0; Plant response rating, Wheat [15, 21]: 0; Plant response rating, Barnyardgrass ([16]; 250 g ai/ha): 40; Plant response rating, Ducksalad ([17]; 250 g ai/ha): 75; Plant response rating, Rice (rice (Oryra sativa); 250 g ai/ha): 10; Plant response rating, Sedge, Umbrella ([18]; 250 g ai/ha): 0 |
| Cc1ccc(C2CNC(=O)C2C(=O)Nc2cccc(F)c2F)cc1C(F)(F)F (racemic) [Compound 679] | 30 | 60 | 80 | 90 | 90 | 90 | 40 | 30 | 30 | 60 | 0 | 40 | 70 | 60 | 50 | 30 | 40 | 20 | 20 | 20 | Plant response rating, Pigweed [4, 19]: 0; Plant response rating, Ragweed [5, 19]: 0; Plant response rating, Ryegrass, Italian [6, 19]: 20; Plant response rating, Galium [7, 21]: 40; Plant response rating, Kochia (Kochia (Kochia scoparia) [8]; [21]): 0; Plant response rating, Blackgrass [10, 21]: 30; Plant response rating, Corn (corn (Zea mays); [21]): 20; Plant response rating, Foxtail, Giant [11, 21]: 0; Plant response rating, Pigweed [12, 21]: 0; Plant response rating, Ragweed [13, 21]: 0; Plant response rating, Ryegrass, Italian [14, 21]: 0; Plant response rating, Wheat [15, 21]: 0; Plant response rating, Barnyardgrass ([16]; 250 g ai/ha): 30; Plant response rating, Ducksalad ([17]; 250 g ai/ha): 55; Plant response rating, Rice (rice (Oryra sativa); 250 g ai/ha): 0; Plant response rating, Sedge, Umbrella ([18]; 250 g ai/ha): 0 |
| Cc1ccc(C2CNC(=O)C2C(=O)Nc2ccc(F)c(F)c2F)cc1C(F)(F)F (racemic) [Compound 681] | 20 | 60 | 70 | 80 | 90 | 90 | 30 | 0 | 30 | 50 | 40 | 40 | 90 | 30 | 30 | 30 | 0 | 0 | 20 | 0 | Plant response rating, Pigweed [4, 19]: 0; Plant response rating, Ragweed [5, 19]: 0; Plant response rating, Ryegrass, Italian [6, 19]: 0; Plant response rating, Galium [7, 21]: 30; Plant response rating, Kochia (Kochia (Kochia scoparia) [8]; [21]): 0; Plant response rating, Blackgrass [10, 21]: 0; Plant response rating, Corn (corn (Zea mays); [21]): 0; Plant response rating, Foxtail, Giant [11, 21]: 0; Plant response rating, Pigweed [12, 21]: 0; Plant response rating, Ragweed [13, 21]: 0; Plant response rating, Ryegrass, Italian [14, 21]: 0; Plant response rating, Wheat [15, 21]: 0; Plant response rating, Barnyardgrass ([16]; 250 g ai/ha): 35; Plant response rating, Ducksalad ([17]; 250 g ai/ha): 25; Plant response rating, Rice (rice (Oryra sativa); 250 g ai/ha): 0; Plant response rating, Sedge, Umbrella ([18]; 250 g ai/ha): 0 |
| O=C1NCC(c2cccc(Br)c2)C1C(=O)Nc1cccc(F)c1F (racemic) [Compound 688] | 30 | 50 | 90 | 90 | 90 | 90 | 40 | 40 | 20 | 50 | 60 | 90 | 90 | 60 | 70 | 90 | 50 | 50 | 60 | 70 | Plant response rating, Pigweed [4, 23]: 30; Plant response rating, Ragweed [5, 23]: 20; Plant response rating, Ryegrass, Italian [6, 23]: 0; Plant response rating, Galium [7, 24]: 40; Plant response rating, Kochia (Kochia (Kochia scoparia) [8]; [24]): 40; Plant response rating, Blackgrass [10, 21]: 50; Plant response rating, Corn (corn (Zea mays); [24]): 40; Plant response rating, Foxtail, Giant [11, 24]: 90; Plant response rating, Pigweed [12, 24]: 30; Plant response rating, Ragweed [13, 24]: 30; Plant response rating, Ryegrass, Italian [14, 24]: 40; Plant response rating, Wheat [15, 24]: 20; Plant response rating, Barnyardgrass ([16]; 250 g ai/ha): 35; Plant response rating, Ducksalad ([17]; 250 g ai/ha): 100; Plant response rating, Rice (rice (Oryra sativa); 250 g ai/ha): 0; Plant response rating, Sedge, Umbrella ([18]; 250 g ai/ha): 0 |
| O=C1NCC(c2cccc(OC(F)(F)C(F)F)c2)C1C(=O)Nc1ccccc1Cl (racemic) [Compound 699] |  | 70 |  | 90 |  | 90 | 50 | 70 | 40 | 60 | 50 |  | 80 | 60 | 60 | 80 | 20 | 30 | 30 | 20 | Plant response rating, Kochia (Kochia (Kochia scoparia) [1]; [23]): 0; Plant response rating, Barnyardgrass [2, 23]: 90; Plant response rating, Foxtail, Giant [3, 23]: 90; Plant response rating, Pigweed [4, 23]: 30; Plant response rating, Ragweed [5, 23]: 0; Plant response rating, Ryegrass, Italian [6, 23]: 20; Plant response rating, Galium [7, 24]: 50; Plant response rating, Kochia (Kochia (Kochia scoparia) [8]; [24]): 30; Plant response rating, Barnyardgrass [9, 24]: 50; Plant response rating, Blackgrass [10, 24]: 30; Plant response rating, Corn (corn (Zea mays); [24]): 30; Plant response rating, Foxtail, Giant [11, 24]: 50; Plant response rating, Pigweed [12, 24]: 20; Plant response rating, Ragweed [13, 24]: 0; Plant response rating, Ryegrass, Italian [14, 24]: 0; Plant response rating, Wheat [15, 24]: 0; Plant response rating, Barnyardgrass ([16]; 500 g ai/ha): 60; Plant response rating, Ducksalad ([17]; 500 g ai/ha): 90; Plant response rating, Rice (rice (Oryra sativa); 500 g ai/ha): 0; Plant response rating, Sedge, Umbrella ([18]; 500 g ai/ha): 0 |
